Data published in ChEMBL document CHEMBL1921760, “Design, synthesis and biological evaluation of 6-pyridylmethylaminopurines as CDK inhibitors” (Bioorg Med Chem, 2011).
The source made the active and inactive calls. The calls are words filed in the database; no cut-off is given here.

Assays:
KM12 = test: Growth inhibition of human KM12 cells after 96 hrs by sulforhodamine B assay; type: functional; settings: KM12, 96 h
CH1 [1] = test: Growth inhibition of doxorubicin-susceptible human CH1 cells after 96 hrs by sulforhodamine B assay; type: functional; settings: CH1, 96 h
[2] = biological target: Cyclin-dependent kinase 4/cyclin D1 (Homo sapiens, UniProt P11802); test: Inhibition of CDK4/cyclin D1; type: protein-complex assay
[3] = biological target: Cyclin-dependent kinase 7/ cyclin H (Homo sapiens, UniProt P50613); test: Inhibition of CDK7/cyclin H; type: protein-complex assay
[4] = Metabolic stability in mouse liver microsomes assessed as compound metabolized at 10 uM after 30 mins by LC-MS analysis; type: ADME, Microsome; settings: read-out: Activity
HCT-116 [5] = test: Growth inhibition of human HCT116 cells after 96 hrs by sulforhodamine B assay; type: functional; settings: HCT-116, 96 h
[6] = biological target: Cyclin-dependent kinase 2/cyclin E1 (Homo sapiens, UniProt P24941); test: Inhibition of CDK2/cyclin E; type: protein-complex assay
A2780 [7] = test: Growth inhibition of cisplatin-susceptible human A2780 cells after 96 hrs by sulforhodamine B assay; type: functional; settings: A2780, 96 h
[8] = biological target: Mitogen-activated protein kinase 1 (Homo sapiens, UniProt P28482); test: Inhibition of ERK2
[9] = Inhibition of PKA
HT-29 [10] = test: Growth inhibition of human HT-29 cells after 96 hrs by sulforhodamine B assay; type: functional; settings: HT-29, 96 h
CH1 [11] = test: Growth inhibition of doxorubicin-resistant human CH1 cells after 96 hrs by sulforhodamine B assay; type: functional; settings: CH1, 96 h
A2780 [12] = test: Growth inhibition of cisplatin-resistant human A2780 cells after 96 hrs by sulforhodamine B assay; type: functional; settings: A2780, 96 h
[13] = biological target: Cyclin-dependent kinase 1/cyclin B1 (Homo sapiens, UniProt P06493); test: Inhibition of CDK1/cyclin B; type: protein-complex assay
[14] = Oral bioavailability in BALB/c mouse at 50 mg/kg by LC-MS analysis; type: ADME, organism-based; settings: in vivo
[15] = Half life in BALB/c mouse plasma at 50 mg/kg, iv by LC-MS analysis; type: ADME, organism-based; parameters: dose 50 mg/kg, route intravenous
[16] = Clearance in BALB/c mouse plasma at 50 mg/kg, iv after 24 hrs by LC-MS analysis; type: ADME, organism-based; parameters: dose 50 mg/kg, route intravenous
CDK9/cyclin T1 = CDK9/cyclin T1 (Homo sapiens, UniProt P50750); test: Inhibition of CDK9/cyclin T1; type: protein-complex assay
[17] = AUC in BALB/c mouse plasma at 50 mg/kg, iv after 24 hrs by LC-MS analysis; type: ADME, organism-based; parameters: time < 24 hr, dose 50 mg/kg, route intravenous
Mus musculus = test: Ratio of Seliciclib clearance to compound clearance in BALB/c mouse plasma at 50 mg/kg, iv after 24 hrs by LC-MS analysis; type: ADME, organism-based; parameters: dose 50 mg/kg, route intravenous; settings: in vivo
[18] = Cmax in BALB/c mouse plasma at 50 mg/kg, iv after 24 hrs by LC-MS analysis; type: ADME, organism-based; parameters: dose 50 mg/kg, route intravenous
[19] = Volume of distribution in BALB/c mouse plasma at 50 mg/kg, iv after 24 hrs by LC-MS analysis; type: ADME, organism-based; parameters: dose 50 mg/kg, route intravenous
[20] = Solubility of the compound in water; type: physicochemical
HCT-116 [21] = test: Antitumor activity against human HCT116 cells xenografted in NCR athymic mouse assessed as reduction in tumor volume at 50 mg/kg, po twice daily at 12 to 14 hrs intervals measured after 12 days relative to vehicle treated control; type: functional; parameters: scale not given: the % may be the effect or the level left
HCT-116 [22] = test: Antitumor activity against human HCT116 cells xenografted in NCR athymic mouse assessed as growth delay at 50 mg/kg, po twice daily at 12 to 14 hrs intervals measured after 12 days relative to vehicle treated control; type: functional, organism-based; parameters: dose 50 mg/kg
HT-29 [23] = test: Reduction of RNA polymerase 2 expression in human HT-29 cells; type: functional, cell-based
HT-29 [24] = test: Cell cycle arrest in human HT-29 cells assessed as reduction at S phase at 3.3 uM up to 16 hrs measuring distribution of bromodeoxyuridine incorporation by flow cytometry; type: functional, cell-based
HT-29 [25] = test: Inhibition of CDK-mediated RB phosphorylation at Ser-780 in human HT29 cells at 0.1 to 20 uM after 24 hrs by Western blotting relative to control; type: cell-based
HT-29 [26] = test: Cell cycle arrest in human HT-29 cells assessed as accumulation at G2/M phase at 3.3 uM up to 16 hrs measuring distribution of bromodeoxyuridine incorporation by flow cytometry; type: functional, cell-based

Sequence of Cyclin-dependent kinase 1/cyclin B1 (P06493 whole entry): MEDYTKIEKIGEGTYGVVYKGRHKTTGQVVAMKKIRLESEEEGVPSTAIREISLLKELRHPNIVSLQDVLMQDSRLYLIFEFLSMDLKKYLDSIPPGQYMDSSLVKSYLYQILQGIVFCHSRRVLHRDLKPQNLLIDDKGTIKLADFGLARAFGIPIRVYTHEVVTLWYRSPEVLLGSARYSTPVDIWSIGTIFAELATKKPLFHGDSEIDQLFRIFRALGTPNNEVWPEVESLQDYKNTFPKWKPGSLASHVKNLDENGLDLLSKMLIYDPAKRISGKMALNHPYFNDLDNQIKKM
Sequence of Cyclin-dependent kinase 1/cyclin B1 (P14635 whole entry, further chain): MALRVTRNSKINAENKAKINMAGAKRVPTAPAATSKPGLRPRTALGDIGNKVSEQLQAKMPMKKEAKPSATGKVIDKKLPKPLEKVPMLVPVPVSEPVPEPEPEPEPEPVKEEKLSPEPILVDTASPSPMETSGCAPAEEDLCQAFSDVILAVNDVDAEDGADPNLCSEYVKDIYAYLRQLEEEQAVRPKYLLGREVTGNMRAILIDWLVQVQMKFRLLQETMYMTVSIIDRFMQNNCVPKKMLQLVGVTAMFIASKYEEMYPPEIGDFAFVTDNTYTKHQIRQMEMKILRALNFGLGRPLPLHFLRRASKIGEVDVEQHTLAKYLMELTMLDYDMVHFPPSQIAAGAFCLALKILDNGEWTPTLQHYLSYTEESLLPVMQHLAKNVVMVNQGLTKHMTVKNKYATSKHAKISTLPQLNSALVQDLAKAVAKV
Sequence of Mitogen-activated protein kinase 1 (P28482 whole entry): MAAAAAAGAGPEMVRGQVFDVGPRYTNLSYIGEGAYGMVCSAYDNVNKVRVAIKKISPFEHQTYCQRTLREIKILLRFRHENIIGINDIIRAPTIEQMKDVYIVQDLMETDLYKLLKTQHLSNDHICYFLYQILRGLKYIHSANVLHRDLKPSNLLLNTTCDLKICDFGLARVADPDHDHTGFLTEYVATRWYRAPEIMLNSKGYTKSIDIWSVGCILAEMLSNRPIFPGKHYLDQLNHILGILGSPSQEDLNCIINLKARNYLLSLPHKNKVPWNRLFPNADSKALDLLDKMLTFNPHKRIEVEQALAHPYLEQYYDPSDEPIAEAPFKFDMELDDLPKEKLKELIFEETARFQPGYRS
Sequence of Cyclin-dependent kinase 7/ cyclin H (P51946 whole entry): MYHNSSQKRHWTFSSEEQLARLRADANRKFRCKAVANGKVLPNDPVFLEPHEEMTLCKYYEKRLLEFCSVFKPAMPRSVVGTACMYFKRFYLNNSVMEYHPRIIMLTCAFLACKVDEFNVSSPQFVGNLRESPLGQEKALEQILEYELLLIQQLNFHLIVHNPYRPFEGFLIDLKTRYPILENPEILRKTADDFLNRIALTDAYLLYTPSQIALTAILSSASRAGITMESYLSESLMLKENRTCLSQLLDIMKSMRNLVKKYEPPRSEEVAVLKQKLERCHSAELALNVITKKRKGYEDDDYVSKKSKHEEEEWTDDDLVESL
Sequence of Cyclin-dependent kinase 7/ cyclin H (P50613 whole entry): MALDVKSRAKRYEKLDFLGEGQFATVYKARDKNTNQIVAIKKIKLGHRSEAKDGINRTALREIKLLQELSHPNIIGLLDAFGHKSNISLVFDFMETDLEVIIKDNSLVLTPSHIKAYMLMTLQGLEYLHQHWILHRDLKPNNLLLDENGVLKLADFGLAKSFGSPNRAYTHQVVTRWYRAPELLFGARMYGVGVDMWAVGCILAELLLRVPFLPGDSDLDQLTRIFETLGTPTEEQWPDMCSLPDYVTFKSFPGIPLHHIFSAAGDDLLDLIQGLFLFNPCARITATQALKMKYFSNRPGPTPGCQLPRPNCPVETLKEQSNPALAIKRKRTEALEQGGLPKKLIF
Sequence of Cyclin-dependent kinase 4/cyclin D1 (P11802 whole entry): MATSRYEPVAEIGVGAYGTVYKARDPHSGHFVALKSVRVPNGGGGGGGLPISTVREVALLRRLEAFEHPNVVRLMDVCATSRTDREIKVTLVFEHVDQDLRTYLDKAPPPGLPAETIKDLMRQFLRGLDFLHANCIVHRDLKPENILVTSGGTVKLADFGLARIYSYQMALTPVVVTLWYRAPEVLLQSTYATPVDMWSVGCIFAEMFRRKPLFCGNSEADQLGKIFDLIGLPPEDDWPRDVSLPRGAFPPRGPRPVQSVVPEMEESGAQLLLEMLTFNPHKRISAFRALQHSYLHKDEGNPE
Sequence of Cyclin-dependent kinase 4/cyclin D1 (P24385 whole entry, further chain): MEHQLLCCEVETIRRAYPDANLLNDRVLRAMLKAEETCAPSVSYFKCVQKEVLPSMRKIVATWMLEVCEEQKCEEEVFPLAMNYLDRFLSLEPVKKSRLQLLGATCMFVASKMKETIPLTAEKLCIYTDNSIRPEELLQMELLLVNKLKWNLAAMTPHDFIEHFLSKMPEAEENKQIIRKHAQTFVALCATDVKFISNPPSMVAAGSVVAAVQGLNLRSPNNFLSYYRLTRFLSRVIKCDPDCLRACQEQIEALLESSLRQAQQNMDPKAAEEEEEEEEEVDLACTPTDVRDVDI
Sequence of CDK9/cyclin T1 (O60563 whole entry): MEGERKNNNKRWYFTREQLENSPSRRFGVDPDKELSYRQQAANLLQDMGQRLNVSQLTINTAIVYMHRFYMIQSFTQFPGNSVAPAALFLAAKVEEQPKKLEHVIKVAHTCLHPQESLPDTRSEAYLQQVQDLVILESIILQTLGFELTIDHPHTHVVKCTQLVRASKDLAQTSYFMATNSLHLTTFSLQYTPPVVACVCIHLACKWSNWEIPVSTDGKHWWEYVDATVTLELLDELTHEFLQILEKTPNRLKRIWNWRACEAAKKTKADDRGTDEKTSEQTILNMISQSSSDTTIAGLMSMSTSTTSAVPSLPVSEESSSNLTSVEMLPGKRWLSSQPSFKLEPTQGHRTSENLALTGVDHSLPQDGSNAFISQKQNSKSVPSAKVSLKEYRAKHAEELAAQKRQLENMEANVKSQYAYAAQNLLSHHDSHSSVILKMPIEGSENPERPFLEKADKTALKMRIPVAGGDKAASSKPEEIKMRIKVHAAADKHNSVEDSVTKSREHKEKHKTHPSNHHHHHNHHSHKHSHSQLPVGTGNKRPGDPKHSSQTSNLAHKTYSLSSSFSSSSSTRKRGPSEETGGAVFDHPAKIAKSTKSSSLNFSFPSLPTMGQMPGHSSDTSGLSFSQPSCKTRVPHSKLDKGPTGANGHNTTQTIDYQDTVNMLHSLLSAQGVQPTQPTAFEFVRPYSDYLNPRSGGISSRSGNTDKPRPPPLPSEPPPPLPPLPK
Sequence of CDK9/cyclin T1 (P50750 whole entry): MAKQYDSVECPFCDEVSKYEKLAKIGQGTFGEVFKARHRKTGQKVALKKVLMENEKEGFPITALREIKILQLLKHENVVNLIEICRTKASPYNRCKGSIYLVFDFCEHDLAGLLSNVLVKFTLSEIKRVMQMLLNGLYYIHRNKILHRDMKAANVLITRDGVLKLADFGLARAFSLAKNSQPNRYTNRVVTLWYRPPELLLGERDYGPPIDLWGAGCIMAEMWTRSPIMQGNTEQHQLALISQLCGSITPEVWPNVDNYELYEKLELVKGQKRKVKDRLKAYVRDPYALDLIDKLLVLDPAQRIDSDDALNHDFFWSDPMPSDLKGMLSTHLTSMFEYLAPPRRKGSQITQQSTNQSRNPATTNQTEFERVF

SMILES	GI50 (KM12)	GI50 (CH1 [1])	IC50 [2]	IC50 [3]	metabolised at 0.5 h, 10 µM [4]	GI50 (HCT-116 [5])	IC50 [6]	GI50 (A2780 [7])	IC50 [9]	GI50 (HT-29 [10])	GI50 (CH1 [11])	GI50 (A2780 [12])	IC50 [13]	bioavailability [14]	half-life [15]	clearance [16]	AUC at 24 h [17]	Cmax [18]	Vd [19]	solubility ([20]; buffer)	other results
CC[C@H](Nc1nc(NCc2ccccn2)c2ncn(C(C)C)c2n1)C(C)O (mixture of isomers)	23 µM	21 µM	18 µM	2.6 µM	67%	10 µM	0.05 µM	10 µM	> 200 µM	20 µM	15.5 µM	17 µM	8.9 µM								IC50 [8]: 77 µM
CC[C@H](Nc1nc(NCc2cccnc2)c2ncn(C(C)C)c2n1)C(C)(C)O	5.4 µM	5 µM	12 µM	2.5 µM	22%	4.1 µM	0.07 µM	4 µM	> 200 µM	5.4 µM	6.8 µM	5.8 µM	4.4 µM	15%	0.4 h	0.4 mL/min	109 µM·h	215 µM	0.012 L	soluble	IC50 (CDK9/cyclin T1): 0.16 µM; Ratio (Mus musculus): 2
CC[C@H](Nc1nc(NCc2ccccn2)c2ncn(C(C)C)c2n1)C(C)(C)O	38 µM	42 µM	20 µM	4.3 µM	53%	32 µM	0.31 µM	19 µM	> 200 µM	> 50 µM	26 µM	44 µM	24 µM								IC50 [8]: > 200 µM
CC[C@H](Nc1nc(NCc2cccnc2)c2ncn(C(C)C)c2n1)[C@@H](C)O [listing 1 of 2 here]														15%	2.8 h	0.15 mL/min	298 µM·h	268 µM	0.013 L	soluble	Activity (HCT-116 [21]): 49%
CC[C@@H](Nc1nc(NCc2cccnc2)c2ncn(C(C)C)c2n1)C(O)C(C)(C)C (mixture of isomers)	19 µM	23 µM	24 µM	1.6 µM	46%	20 µM	1 µM	18 µM	> 200 µM	22 µM	23 µM	23 µM	23 µM								
CC[C@@H](Nc1nc(NCc2cccnc2)c2ncn(C(C)C)c2n1)[C@H](C)O														15%	1.7 h	0.283 mL/min	158 µM·h	377 µM	0.084 L	soluble	
CC[C@H](Nc1nc(NCc2cccnc2)c2ncn(C(C)C)c2n1)C(O)C(C)C (mixture of isomers)	22 µM	22 µM	31 µM	3.5 µM	62%	22 µM	1.1 µM	19 µM	> 200 µM	26 µM	20.5 µM	26.5 µM	22 µM								
CC[C@@H](Nc1nc(NCc2ccccn2)c2ncn(C(C)C)c2n1)C(C)O (mixture of isomers)	37 µM	20 µM	48 µM	0.55 µM	97%	18 µM	0.52 µM	15 µM	> 200 µM	42 µM	20 µM	27 µM	39 µM								IC50 [8]: 73 µM
CC[C@@H](Nc1nc(NCc2cccnc2)c2ncn(C(C)C)c2n1)C(C)(C)O	13 µM	20 µM	7.5 µM	3.1 µM	16%	13 µM	0.2 µM	10 µM	> 200 µM	19 µM	21 µM	21 µM	6.2 µM	15%	0.6 h	0.2 mL/min	223 µM·h	275 µM	0.01 L	soluble	IC50 (CDK9/cyclin T1): 0.21 µM; Ratio (Mus musculus): 2
CCC(O)[C@H](CC)Nc1nc(NCc2cccnc2)c2ncn(C(C)C)c2n1 (mixture of isomers)	8.2 µM	11 µM	11 µM	1.5 µM	27%	5.4 µM	0.11 µM	4.3 µM	> 200 µM	12.5 µM	9.4 µM	12.5 µM	13 µM								
CC[C@H](CO)Nc1nc(NCc2ccccc2)c2ncn(C(C)C)c2n1 [SELICICLIB]		3.25 µM			67%	5.05 µM		4.45 µM	> 50 µM	6.4 µM	5.4 µM				1.4 h	0.85 mL/min	53.4 µM·h	93.7 µM	0.073 L		
CC[C@H](Nc1nc(NCc2cccnc2)c2ncn(C(C)C)c2n1)[C@@H](C)O.O=C(O)C(F)(F)F																					solubility ([20]; water, read-out: solubility): > 25 mg/mL
CC[C@H](Nc1nc(NCc2cccnc2)c2ncn(C(C)C)c2n1)[C@@H](C)O [listing 2 of 2 here]																					Activity (HCT-116 [22]): Active; Activity (HT-29 [23]): Active; Activity (HT-29 [24]): Active; inhibition (HT-29 [25]): Active; Activity (HT-29 [26]): Active
